Experimental data published in patent publication US10357507B2, “Use of ginsenoside M1 for inhibiting renal fibrosis” (priority 2014, dated 2019).

What was measured:
Assay type in all cases: in vivo, C57BL/6 mice
UUO kidney = assay: Renal histopathology evaluation by H&E staining in UUO model; conditions: 30 mg/kg daily i.p.
Procedure: (§1) Male 8-week-old C57BL/6 mice were purchased form National Laboratory Animal Breeding and Research Center (Taipei, Taiwan) and maintained at the animal center of the National Defense Medical Center (Taipei, Taiwan). All animal experiments were performed with the approval of the Institutional Animal Care and Use Committee of The National Defense Medical Center, Taiwan, and were consistent with the National Institutes of Health Guide for the Care and Use of Laboratory Animals.
(§2) Mice were first anesthetized with sodium pentobarbital (50 mg/kg, i.p.). After a left flank incision was taken, the left ureter was exposed, ligated with 6-0 silk sutures at two points, and cut between the two ligatures. Lastly, the peritoneal membrane and skin were sutured. Sham surgery was performed as control by following all steps of UUO-procedure except ligation and cut of ureter. (Xiao et al. Adenosine A2A receptor: a target for regulating renal interstitial fibrosis in obstructive nephropathy, PLoS One. 2013 Apr. 9; 8 (4):e60173).
Briefly, all mice received preoperative analgesia (subcutaneous injection of […] buprenorphin (Temgesic, Shering-Plough)) and the right ureter was subsequently ligated with 6.0 silk through a small abdominal incision under 2.0% isoflurane-induced anesthesia. The abdomen was closed in two layers and mice were allowed to recover from surgery for 12 hours at 28° C. in a ventilated stove. Mice were sacrificed 7 or 14 days after surgery (Pulskens, et al. Nlrp3 prevents early renal interstitial edema and vascular permeability in unilateral ureteral obstruction, PLoS One. 2014 Jan. 15; 9 (1):e85775).
Ginsenoside M1, 20-O-β-D-glucopyranosyl-20(S)-protopanaxadiol (named LCHK168 below), was prepared by methods known in the art, such as those described in Taiwan Patent Application No. 094116005 (I280982) and U.S. Pat. No. 7,932,057. LCHK168 was dissolved in 3% cremophore (Sigma-Aldrich). Starting from one day before UUO operation, mice were given a daily dose of LCHK168 (30 mg/kg) by intraperitoneal injection till sacrifice.
Paraffin-embedded kidney tissues were sectioned and stained with Masson's trichrome and hematoxylin and eosin (H&E) using standard protocols. For histopathology, the tissues were fixed in 10% buffered formalin and embedded in paraffin, and then sections (3 μm) were prepared and stained with hematoxylin and eosin (H&E).
Sections all are examed after mounting. The methods of semi-quantitative analysis are according to the degree of inflammation and fibrosis on renal tubulointerstitial whereas and randomly selected 20 fields randomly for scoring. […]

[1] = system: apoptotic cells in UUO renal interstitial area; assay: TUNEL staining of renal section for apoptotic cells in UUO model; conditions: UUO mice; 30 mg/kg daily i.p.
Procedure: as §1, §2
(§3) Briefly, all mice received preoperative analgesia (subcutaneous injection of […] buprenorphin (Temgesic, Shering-Plough)) and the right ureter was subsequently ligated with 6.0 silk through a small abdominal incision under 2.0% isoflurane-induced anesthesia. […]

[2] = system: proliferating cell nuclear antigen (PCNA); assay: Immunohistochemical staining of renal section for PCNA in UUO model; conditions: UUO mice; 30 mg/kg daily i.p.
Procedure: as §1, §2, §3

[3] = system: fibrosis tissue in the UUO interstitial area; assay: Masson's trichrome staining of renal section in UUO model; conditions: UUO mice; 30 mg/kg daily i.p.
Procedure: as §1, §2, §3

α-SMA = assay: Immunohistochemical staining of renal section for α-SMA in UUO model; conditions: UUO mice; 30 mg/kg daily i.p.
Procedure: as §1, §2, §3

collagen III = assay: Immunohistochemical staining of renal section for collagen III in UUO model; conditions: UUO mice; 30 mg/kg daily i.p.
Procedure: as §1, §2, §3

collagen IV = assay: Immunohistochemical staining of renal section for collagen IV in UUO model; conditions: UUO mice; 30 mg/kg daily i.p.
Procedure: as §1, §2, §3

NF-κB = assay: Immunohistochemical staining of renal section for NF-κB in UUO model; conditions: UUO mice; 30 mg/kg daily i.p.
Procedure: as §1, §2, §3

[4] = system: F4/80+ monocytes/macrophages; assay: Immunohistochemical staining of renal section for F4/80 (macrophage infiltration) in UUO model; conditions: UUO mice; 30 mg/kg daily i.p.
Procedure: as §1, §2, §3

CD3+ T cells = assay: Immunohistochemical staining of renal section for CD3+ (T cell infiltration) in UUO model; conditions: UUO mice; 30 mg/kg daily i.p.
Procedure: as §1, §2, §3

MCP-1 = assay: ELISA of MCP-1 in pelvis urine in UUO model
Procedure: as §1
as §2, with “(4):e60173). […]” for “(4):e60173).”
(§4) Urine samples are collected from calyx and pelvis by 29G insulin syringe. […] MCP-1, TNF-α, and IL-1β are then detected by ELISA following instruction manual (eBioscience and R&D). […]

TNF-α = assay: ELISA of TNF-α in pelvis urine in UUO model
Procedure: as §1
as §2, with “(4):e60173). […]” for “(4):e60173).”
as §4

IL-1β = assay: ELISA of IL-1β in pelvis urine in UUO model
Procedure: as §1
as §2, with “(4):e60173). […]” for “(4):e60173).”
as §4

splenocytes = assay: B cells and T cells activation in splenocytes by flow cytometry in UUO model; conditions: within three groups (sham, disease control, LCHK168)
Procedure: as §1, §2, §3

bone marrow cells = assay: Stem cells and hematopoietic stem cell activation in bone marrow cells by flow cytometry in UUO model; conditions: within three groups (sham, disease control, LCHK168)
Procedure: as §1, §2, §3

[5] = 7 days of UUO, vs disease control mice
[6] = day 7, compare to normal control group

Structure (SMILES): CC(C)=CCC[C@](C)(O[C@@H]1O[C@H](CO)[C@@H](O)[C@H](O)[C@H]1O)[C@H]1CC[C@]2(C)[C@@H]1[C@H](O)C[C@@H]1[C@@]3(C)CC[C@H](O)C(C)(C)[C@@H]3CC[C@]12C [LCHK168, 20-O-β-D-glucopyranosyl-20(S)-protopanaxadiol]
- mononuclear leukocyte infiltration in the interstitial area (H&E) (UUO kidney; [5]): inhibited
- tubular dilation in the interstitial area (H&E) (UUO kidney; [5]): inhibited
- fibrosis (H&E) (UUO kidney; 14 days of UUO): significantly inhibited
- tubular atrophy (H&E) (UUO kidney; 14 days of UUO): significantly inhibited
- apoptotic cells (TUNNEL staining) in UUO renal interstitial area [1]: decrease
- PCNA expression in renal section [2]: decrease
- fibrosis tissue in the UUO interstitial area (Masson's trichrom staining) [3]: decreased
- α-SMA expression in UUO interstitial area (α-SMA): decreased
- collagen III expression in UUO interstitial area (collagen III): decreased
- collagen IV expression in UUO interstitial area (collagen IV): decreased
- NF-κB expression in renal section (NF-κB): inhibited
- expression of F4/80 (macrophage) in renal section [4]: decreased
- expression of CD3+ (T cells) in renal section (CD3+ T cells): decreased
- MCP-1 in renal pelvis urine (MCP-1; [6]): higher
- MCP-1 in renal pelvis urine (MCP-1; day 14, compare to UUO group): significant decreased
- TNF-α in renal pelvis urine (TNF-α; [6]): higher
- TNF-α in renal pelvis urine (TNF-α; day 14, compare to UUO group): significant decreased
- IL-1β in renal pelvis urine (IL-1β; [6]): higher
- IL-1β in renal pelvis urine (IL-1β; day 14, compare to UUO group): significant decreased
- percentage of CD3+CD69+ cells in splenocytes (splenocytes): no significant change
- percentage of CD19+CD69+ cells in splenocytes (splenocytes): no significant change
- percentage of CD34+ (stem cell) cells in bone marrow cells (bone marrow cells): no significant change
- percentage of Stem-cell antigen-1-positive cells (hematopoietic stem cell) in bone marrow cells (bone marrow cells): no significant change
